Tests used:
[1] = tested on: subjects with T2DM and CKD stage 3B or 4; experiment: Phase 1b 28-day safety, tolerability and PK study in subjects with T2DM and CKD stage 3B or 4; format: in vivo
Text: An Open Label, Parallel Arm Study to Assess the Safety, Tolerability, and Pharmacokinetics of Imeglimin in Subjects with Type 2 Diabetes Mellitus (T2DM) and Moderate to Severe Chronic Kidney Disease (CKD)
This Phase 1b study is to assess the safety, tolerability and pharmacokinetics (PK) of imeglimin in subjects with T2DM and CKD stage 3B or 4.
Subjects will be randomly allocated to receive one of three treatments or placebo.
Doses which are below the minimally acceptable doses are acceptable if stable for 12 weeks prior to Screening as per prescribing information. […] Primary Outcome Measures […]
Safety can be evaluated by assessment of clinical laboratory tests, physical examinations, vital signs measurements, and ECG readings at various time points during the study, and by the documentation of AEs.
The incidence of treatment-emergent adverse events (TEAE) will be summarized by treatment.
Plasma lactate will be summarized descriptively by absolute value at each visit by treatment group, together with the corresponding changes from baseline.
Pharmacokinetics (PK) data can be descriptively summarized by treatment group. PK parameters will be determined using noncompartmental methods. […] Steady-state can be evaluated using the trough concentration data.

[2] = Protein binding; format: in vitro ADME
[3] = Pharmacokinetics of imeglimin (dose proportionality, excretion pathway); format: in vivo
[4] = Imeglimin Total, CKD3b (n = 21)

With C[C@H]1N=C(N(C)C)N=C(N)N1 [imeglimin, (6R)—N^2, N^2,6-trimethyl-3,6-dihydro-1,3,5-triazine-2,4-diamine] the “Subjects with any TEAE by maximum severity: Grade 4 - Life-threatening” value (shortened to “Subjects with any TEAE … - Life-threatening”) ([1]; 1500 mg QD, CKD3b (n = 17)) was 0 n, %, the “Subjects with any TEAE by maximum severity: Grade 5 - Death” value (shortened to “Subjects with any TEAE … - Death”) ([1]; 1500 mg QD, CKD3b (n = 17)) was 0 n, % and the “Subjects with any study drug related TEAE” value ([1]; 1500 mg QD, CKD3b (n = 17)) was 1 (14%) n, %. The “Subjects with any study drug related TEAE: Grade 1 - Mild” value ([1]; 1500 mg QD, CKD3b (n = 17)) was 1 (14%) n, %, the “Subjects with any study drug related TEAE: Grade 2 - Moderate” value ([1]; 1500 mg QD, CKD3b (n = 17)) was 0 n, % and the “Subjects with any study drug related TEAE: Grade 3 - Severe” value ([1]; 1500 mg QD, CKD3b (n = 17)) was 0 n, %. The “Subjects with any study drug related TEAE: Grade 4 - Life-threatening” value ([1]; 1500 mg QD, CKD3b (n = 17)) was 0 n, %, the “Subjects with any study drug related TEAE: Grade 5 - Death” value ([1]; 1500 mg QD, CKD3b (n = 17)) was 0 n, % and the “TEAE: Gastrointestinal disorders” value ([1]; 1500 mg QD, CKD3b (n = 17)) was 3 (43%) n, %. The “Subjects with any TEAE” value ([1]; 1500 mg QD, CKD4 (n = 5)) was 3 (60%) n, %, the “Subjects with any TEAE by maximum severity: Grade 1 - Mild” value (“Subjects with any TEAE … - Mild” below) ([1]; 1500 mg QD, CKD4 (n = 5)) was 3 (60%) n, % and the “Subjects with any TEAE by maximum severity: Grade 2 - Moderate” value (“Subjects with any TEAE … - Moderate” for short) ([1]; 1500 mg QD, CKD4 (n = 5)) was 0 n, %. For the same compound, the “Subjects with any TEAE by maximum severity: Grade 3 - Severe” value (from here on “Subjects with any TEAE … - Severe”) ([1]; 1500 mg QD, CKD4 (n = 5)) was 0 n, %, the “Subjects with any TEAE … - Life-threatening” value ([1]; 1500 mg QD, CKD4 (n = 5)) was 0 n, % and the “Subjects with any TEAE … - Death” value ([1]; 1500 mg QD, CKD4 (n = 5)) was 0 n, %. The “Subjects with any study drug related TEAE” value ([1]; 1500 mg QD, CKD4 (n = 5)) was 2 (40%) n, %, the “Subjects with any study drug related TEAE: Grade 1 - Mild” value ([1]; 1500 mg QD, CKD4 (n = 5)) was 2 (40%) n, % and the “Subjects with any study drug related TEAE: Grade 2 - Moderate” value ([1]; 1500 mg QD, CKD4 (n = 5)) was 0 n, %. The “Subjects with any study drug related TEAE: Grade 3 - Severe” value ([1]; 1500 mg QD, CKD4 (n = 5)) was 0 n, %, the “Subjects with any study drug related TEAE: Grade 4 - Life-threatening” value ([1]; 1500 mg QD, CKD4 (n = 5)) was 0 n, % and the “Subjects with any study drug related TEAE: Grade 5 - Death” value ([1]; 1500 mg QD, CKD4 (n = 5)) was 0 n, %. For the same compound, the “TEAE: Gastrointestinal disorders” value ([1]; 1500 mg QD, CKD4 (n = 5)) was 2 (40%) n, %, the “confirmed plasma lactate elevations” value ([1]; CKD stages 3B and 4, 28 days) was “no cases of confirmed plasma lactate elevations” and the lactic acidosis ([1]; CKD stages 3B and 4, 28 days) was “no lactic acidosis”. The serious adverse events ([1]; CKD stages 3B and 4, 28 days) was “no incidence of serious adverse events”, the “AUC by CKD stage” value ([1]; Day 15, 1500 mg QD and 1000 mg BID treatment groups) was “increased in the T2DM with CKD stage 4 compared to CKD3B” and the “Subjects with any TEAE” value [1, 4] was 10 (48%) n, %. The “Subjects with any TEAE … - Mild” value [1, 4] was 6 (29%) n, %, the “Subjects with any TEAE … - Moderate” value [1, 4] was 4 (19%) n, % and the “Subjects with any TEAE … - Severe” value [1, 4] was 0 n, %. The “Subjects with any TEAE … - Life-threatening” value [1, 4] was 0 n, %, the “Subjects with any TEAE … - Death” value [1, 4] was 0 n, % and the “Subjects with any study drug related TEAE” value [1, 4] was 3 (14%) n, %. The “Subjects with any study drug related TEAE: Grade 1 - Mild” value [1, 4] was 2 (10%) n, %, the “Subjects with any study drug related TEAE: Grade 2 - Moderate” value [1, 4] was 1 (5%) n, % and the “Subjects with any study drug related TEAE: Grade 3 - Severe” value [1, 4] was 0 n, %. For the same compound, the “Subjects with any study drug related TEAE: Grade 4 - Life-threatening” value [1, 4] was 0 n, %, the “Subjects with any study drug related TEAE: Grade 5 - Death” value [1, 4] was 0 n, % and the “TEAE: Gastrointestinal disorders” value [1, 4] was 5 (24%) n, %. For the same compound, the “Subjects with any TEAE” value ([1]; Imeglimin Total, CKD4 (n = 17)) was 8 (47%) n, %, the “Subjects with any TEAE … - Mild” value ([1]; Imeglimin Total, CKD4 (n = 17)) was 5 (29%) n, % and the “Subjects with any TEAE … - Moderate” value ([1]; Imeglimin Total, CKD4 (n = 17)) was 3 (18%) n, %. The “Subjects with any TEAE … - Severe” value ([1]; Imeglimin Total, CKD4 (n = 17)) was 0 n, %, the “Subjects with any TEAE … - Life-threatening” value ([1]; Imeglimin Total, CKD4 (n = 17)) was 0 n, % and the “Subjects with any TEAE … - Death” value ([1]; Imeglimin Total, CKD4 (n = 17)) was 0 n, %. The “Subjects with any study drug related TEAE” value ([1]; Imeglimin Total, CKD4 (n = 17)) was 3 (18%) n, %, the “Subjects with any study drug related TEAE: Grade 1 - Mild” value ([1]; Imeglimin Total, CKD4 (n = 17)) was 3 (18%) n, % and the “Subjects with any study drug related TEAE: Grade 2 - Moderate” value ([1]; Imeglimin Total, CKD4 (n = 17)) was 0 n, %. The “Subjects with any study drug related TEAE: Grade 3 - Severe” value ([1]; Imeglimin Total, CKD4 (n = 17)) was 0 n, %, the “Subjects with any study drug related TEAE: Grade 4 - Life-threatening” value ([1]; Imeglimin Total, CKD4 (n = 17)) was 0 n, % and the “Subjects with any study drug related TEAE: Grade 5 - Death” value ([1]; Imeglimin Total, CKD4 (n = 17)) was 0 n, %. For the same compound, the “TEAE: Gastrointestinal disorders” value ([1]; Imeglimin Total, CKD4 (n = 17)) was 4 (24%) n, %, the “maximum observed concentrations (Cmax)” value ([1]; after the morning dose on Day 15) was “increased in a dose-dependent manner” and the tolerability ([1]; as CKD severity increased (up to stage 4)) was “well tolerated”. The protein binding [2] was less than 8 % bound, the “dose proportionality of exposures” value ([3]; 250 to 2000 mg range) was “less than dose proportional exposures” and the main excretion pathway ([3]; in vivo) was “renal elimination as the main excretion pathway”.
